Reference: patent US20210393678A1, “PERSONALIZED FOOD PRODUCTS FOR ENSURING ADEQUATE IRON INTAKE” (MY-OR D[…]., priority 2018, published 2021)

Columns and labels:
[1] = clinical studies; cited from earlier work
[2] = Noninvasive total blood hemoglobin in immoderate iron deficient subjects before and after 2 weeks of iron chelate; assay type: in vivo, human; conditions: immoderate iron deficient subjects 2-7 years of age, baseline average 10.03 g/dL, 1 mL (15 mg) daily, Masimo rainbow SET SpHb
Protocol: To examine this, the inventors have recruited a population (2-7 years of age) of immoderate iron deficient subjects having an average hemoglobin level of 10.03 g/dL. Total blood hemoglobin levels were measured noninvasively at baseline (time 0) and following treatment (after 2 weeks) from the index finger of subjects using Masimo rainbow SET SpHb technology. Subjects were instructed to take 1 mL of iron bis-glycinate chelate (15 mg) daily.

| Compound | hemoglobin and ferritin indices compared with ferrous sulfate or ferrous ascorbate [1] | average total blood hemoglobin level following treatment ([2]; after two weeks) [g/dL] | increase of total blood hemoglobin level, on average ([2]; two weeks, index finger) [%] |
| --- | --- | --- | --- |
| NCC(=O)[O-].NCC(=O)[O-].[Fe+2] [Ferrochel, ferrous bis glycinate] | improved hemoglobin and ferritin indices at lower dosages than ferrous sulfate or ferrous ascorbate |  |  |
| NCC(=O)[O-].NCC(=O)[O-].[Fe+2] [iron bis-glycinate chelate] |  | 11.13 | 11 |
